From patent US12303530B2, “Combination therapy of cycloserine and lithium for the treatment of depression” (NEURORIVE INC, priority 2019, dated 2025)

System: mice (C57BL6)
Assay: forced swimming test (FST)
Format: in vivo, mouse
Conditions: FST in an hour after administration, immobility time measured for the last 4 minutes of 6 minutes
Description: In order to test an effect of reducing depression depending on administration of the pharmaceutical composition of the present invention, mice were subjected to a forced swimming test (FST). The FST, which is to measure a coping strategy for acute stress that inevitably occurs, is an animal behavioral experiment commonly used to measure antidepressant effects. To confirm the effect of reducing depression by combined administration of D-cycloserine (DCS) and lithium, 10 ml/kg of the preparation was administered to all groups of mice (C57BL6). […] After 1 hour, the forced swimming test (FST) that measures depression-like behavior was performed on the mice. Specifically, each group of mice was individually placed in a 3 L Pyrex beaker (13 cm in diameter, 24 cm in height), and the beakers were filled with 27.5±1.5° C. of water up to a depth of 9 cm. All mice were forced to swim for 6 minutes, and immobility time was measured for the last 4 minutes of the experiment. The immobility time is defined as the […] time taken while the mouse is floating without struggling or taking only the movement required for keeping the mouse's head above the water surface.

Structure (SMILES)	immobility in forced swimming test, compared to the control group administered with the vehicle
N[C@@H]1CONC1=O [DCS, D-cycloserine]	did not show statistical significance
O=C([O-])[O-].[Li+].[Li+] [Li2CO3, Lithium carbonate]	did not show statistical significance
